This note sets out measurements from PubChem BioAssay AID330 (DTP/NCI, 2004).

This assay concerns P388 leukemia ip, CD2F1 mice, survival T/C. The assay can be described thus: NCI In Vivo Anticancer Drug Screen. Data for tumor model P388 Leukemia (intraperitoneal) in CD2F1 (CDF1) mice. The following applies: endpoint: median survival time, higher = longer survival. The procedure, abridged: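 Mice carrying the transplanted tumor received test compound or vehicle. Survival was recorded in each group, and the value is the treated-group measurement divided by that of the vehicle-treated control group.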

[1] abbreviates: dose: 50.0 mg/kg/injection, schedule: Q01DX009 (ip), vehicle: saline with Tween-80.
[2] abbreviates: dose: 100.0 mg/kg/injection, schedule: Q01DX009 (ip), vehicle: saline with Tween-80.
Setting [3] is: dose: 50.0 mg/kg/injection, schedule: Q01DX005 (ip), vehicle: saline with Tween-80.
Setting [4] is: dose: 100.0 mg/kg/injection, schedule: Q01DX005 (ip), vehicle: saline with Tween-80.
Setting [5] is: dose: 60.0 mg/kg/injection, schedule: Q01DX005 (ip), vehicle: saline with Tween-80.
The mark [6] stands for this setting: dose: 120.0 mg/kg/injection, schedule: Q01DX005 (ip), vehicle: saline with Tween-80.
[7] abbreviates: dose: 50.0 mg/kg/injection, schedule: Q01DX005 (ip), vehicle: Klucel (hydroxypropylcellulose) (HPC).
Setting [8] is: dose: 100.0 mg/kg/injection, schedule: Q01DX005 (ip), vehicle: Klucel (hydroxypropylcellulose) (HPC).

Several values for one entry are separate records, joined by “and”; a condition that tells them apart may be missing. Identical values can stand only once. Inconclusive results and toxic doses are left out. Peptide text beside a SMILES is read from it.

In the case of `CC(C)(C)N=C(CCN1CCN(CCC(=NC(C)(C)C)Nc2ccc([N+](=O)[O-])cc2)CC1)Nc1ccc([N+](=O)[O-])cc1`, the T/C was 92 % of control (dose: 12.5 mg/kg/injection, schedule: Q01DX009 (ip), vehicle: saline with Tween-80); 96 % of control (dose: 25.0 mg/kg/injection, schedule: Q01DX009 (ip), vehicle: saline with Tween-80); 87 % of control (dose: 50.0 mg/kg/injection, schedule: Q01DX009 (ip), vehicle: Klucel (hydroxypropylcellulose) (HPC)); 91 % of control under setting [1]; 93 % of control (dose: 200.0 mg/kg/injection, schedule: Q01DX009 (ip), vehicle: Klucel (hydroxypropylcellulose) (HPC)).
Turning to `Cc1cc2c(=O)[nH]c(N)nc2[nH]1`, the T/C reads like this: (dose: 12.5 mg/kg/injection, schedule: Q01DX009 (ip), vehicle: suspension in saline) 99 % of control; (dose: 25.0 mg/kg/injection, schedule: Q01DX009 (ip), vehicle: suspension in saline) 115 % of control; (dose: 50.0 mg/kg/injection, schedule: Q01DX009 (ip), vehicle: suspension in saline) 113 % of control and 116 % of control.
Take `Cc1ccc([Se]CCBr)cc1`: the T/C is, setting by setting: (dose: 25.0 mg/kg/injection, schedule: Q01DX001 (ip), vehicle: saline) 108 % of control; (dose: 50.0 mg/kg/injection, schedule: Q01DX001 (ip), vehicle: saline) 101 % of control; (dose: 100.0 mg/kg/injection, schedule: Q01DX001 (ip), vehicle: saline) 96 % of control.
As to `O=C(OCCOCCN1CCCCC1)C1c2ccccc2Sc2ccc(Cl)cc21` (stereo not given), the T/C (dose: 12.5 mg/kg/injection, schedule: Q01DX005 (ip), vehicle: saline) is 100 % of control; the T/C (dose: 25.0 mg/kg/injection, schedule: Q01DX005 (ip), vehicle: saline) is 105 % of control; the T/C (dose: 50.0 mg/kg/injection, schedule: Q01DX005 (ip), vehicle: saline) is 100 % of control and 98 % of control.
In the case of `C[C@]12CCC(=O)C[C@H]1CC[C@@H]1[C@@H]2CC[C@@]2(C)[C@H]1CC[C@]2(C)O`, the T/C under setting [2] is 90 % of control; the T/C (dose: 200.0 mg/kg/injection, schedule: Q01DX009 (ip), vehicle: saline with Tween-80) was 95 % of control; the T/C (dose: 400.0 mg/kg/injection, schedule: Q01DX009 (ip), vehicle: saline with Tween-80) is 100 % of control.
Take `COC(=O)C(C)c1[nH]c2ccccc2c1[Se]c1ccccc1` (stereo not given): the T/C runs as follows: (dose: 100.0 mg/kg/injection, schedule: Q01DX001 (ip), vehicle: saline with Tween-80) 102 % of control; (dose: 200.0 mg/kg/injection, schedule: Q01DX001 (ip), vehicle: saline with Tween-80) 106 % of control; (dose: 400.0 mg/kg/injection, schedule: Q01DX001 (ip), vehicle: saline with Tween-80) 94 % of control.
As for `COc1c(OP2(=S)OCC(C)(C)CO2)cnn(C2CCCCC2)c1=O`, the T/C runs as follows: under setting [3], 89 % of control; under setting [4], 88 % of control.
On to `CC1C2CCC3C(O)C2(CC(O)C2(O)C1CC(O)C2(C)C)CC3(C)O` (stereo not given), for which the T/C runs as follows: (dose: 0.25 mg/kg/injection, schedule: Q01DX009 (ip), vehicle: Klucel (hydroxypropylcellulose) (HPC)) 101 % of control; (dose: 0.5 mg/kg/injection, schedule: Q01DX009 (ip), vehicle: Klucel (hydroxypropylcellulose) (HPC)) 93 % of control; (dose: 1.0 mg/kg/injection, schedule: Q01DX009 (ip), vehicle: Klucel (hydroxypropylcellulose) (HPC)) 95 % of control.
Consider `CSC(SC)(C(=O)O)c1cc(-c2c(Cl)cccc2Cl)no1`, for which the T/C is 93 % of control under setting [5] and 102 % of control under setting [6].
Take `Nc1ncnc2c1ncn2C1CC(O)C(COC(c2ccccc2)(c2ccccc2)c2ccccc2)O1` (stereo not given): the T/C runs as follows: under setting [7], 95 % of control; under setting [8], 91 % of control; (dose: 200.0 mg/kg/injection, schedule: Q01DX005 (ip), vehicle: Klucel (hydroxypropylcellulose) (HPC)) 86 % of control.
As to `CC(C)CC(N)C(=O)NC(CCCN=C(N)N)C(=O)NC(CCCN=C(N)N)C(=O)NC(C)C(=O)NC(CO)C(=O)NC(CC(C)C)C(=O)NCC(=O)O` (stereo not given) (H-LRRASLG-OH; configuration not given here), the T/C is, setting by setting: (dose: 2.25 mg/kg/injection, schedule: Q01DX009 (ip), vehicle: Klucel (hydroxypropylcellulose) (HPC)) 103 % of control; (dose: 4.5 mg/kg/injection, schedule: Q01DX009 (ip), vehicle: Klucel (hydroxypropylcellulose) (HPC)) 100 % of control; (dose: 9.0 mg/kg/injection, schedule: Q01DX009 (ip), vehicle: Klucel (hydroxypropylcellulose) (HPC)) 100 % of control; (dose: 18.0 mg/kg/injection, schedule: Q01DX009 (ip), vehicle: Klucel (hydroxypropylcellulose) (HPC)) 106 % of control; (dose: 36.0 mg/kg/injection, schedule: Q01DX009 (ip), vehicle: Klucel (hydroxypropylcellulose) (HPC)) 106 % of control.
Consider `CC(=O)OCCSSCCOC(C)=O`, for which the T/C by setting is: under setting [1], 107 % of control; under setting [2], 113 % of control.
Consider `O=C(O)c1ccc(-c2c3ccc(=O)cc-3oc3cc(O)ccc23)cc1`, for which the T/C (dose: 60.0 mg/kg/injection, schedule: Q01DX005 (ip), vehicle: Klucel (hydroxypropylcellulose) (HPC)) was 100 % of control; the T/C (dose: 120.0 mg/kg/injection, schedule: Q01DX005 (ip), vehicle: Klucel (hydroxypropylcellulose) (HPC)) is 97 % of control; the T/C (dose: 240.0 mg/kg/injection, schedule: Q01DX005 (ip), vehicle: Klucel (hydroxypropylcellulose) (HPC)) was 100 % of control.
On to `C=C1C(=O)OC2C1CC/C(C)=C/CCC1(C)OC21` (stereo not given), for which the T/C is, setting by setting: (dose: 8.75 mg/kg/injection, schedule: Q01DX009 (ip), vehicle: Klucel (hydroxypropylcellulose) (HPC)) 106 % of control; (dose: 17.5 mg/kg/injection, schedule: Q01DX009 (ip), vehicle: Klucel (hydroxypropylcellulose) (HPC)) 106 % of control.
Take `Cc1c(N=Nc2c(S(=O)(=O)O)cc3cc(S(=O)(=O)O)c(N=Nc4c(C)n(C)n(-c5ccccc5)c4=O)c(O)c3c2O)c(=O)n(-c2ccccc2)n1C`: the T/C is, setting by setting: (dose: 60.0 mg/kg/injection, schedule: Q01DX005 (ip), vehicle: suspension in saline) 101 % of control; (dose: 120.0 mg/kg/injection, schedule: Q01DX005 (ip), vehicle: suspension in saline) 96 % of control; (dose: 240.0 mg/kg/injection, schedule: Q01DX005 (ip), vehicle: suspension in saline) 110 % of control.
Regarding `O=C(OCCOCCO)c1ccccc1-c1c2cc(I)c(=O)c(I)c-2oc2c(I)c(O)c(I)cc12`, the T/C runs as follows: (dose: 60.0 mg/kg/injection, schedule: Q01DX005 (ip), vehicle: saline) 94 % of control; (dose: 120.0 mg/kg/injection, schedule: Q01DX005 (ip), vehicle: saline) 91 % of control; (dose: 240.0 mg/kg/injection, schedule: Q01DX005 (ip), vehicle: saline) 92 % of control.
As for `CN1C=CC2C(C(=O)O)CC2C1=O` (stereo not given), the T/C by setting is: (dose: 100.0 mg/kg/injection, schedule: Q04DX002 (ip), vehicle: saline) 99 % of control; (dose: 200.0 mg/kg/injection, schedule: Q04DX002 (ip), vehicle: saline) 115 % of control; (dose: 400.0 mg/kg/injection, schedule: Q04DX002 (ip), vehicle: saline) 109 % of control.
`CC(C)(C)N1N=C2CCCC2[Si]1(C)C` (stereo not given): the T/C is, setting by setting: (dose: 25.0 mg/kg/injection, schedule: Q01DX005 (ip), vehicle: Klucel (hydroxypropylcellulose) (HPC)) 105 % of control; under setting [7], 102 % of control; under setting [8], 102 % of control.
On to `N/N=C1\c2ccccc2-c2cccc(N)c21`, for which the T/C is, setting by setting: under setting [5], 102 % of control; under setting [6], 112 % of control; (dose: 240.0 mg/kg/injection, schedule: Q01DX005 (ip), vehicle: saline with Tween-80) 99 % of control.
With `C=C(c1ccccc1)N1N=NC2CCOC21` (stereo not given), the T/C by setting is: under setting [3], 105 % of control; under setting [4], 99 % of control; (dose: 200.0 mg/kg/injection, schedule: Q01DX005 (ip), vehicle: saline with Tween-80) 100 % of control.
With `CCOc1nc(N)nc(C)c1N=Nc1ccc(Cl)cc1`, the T/C (dose: 60.0 mg/kg/injection, schedule: Q01DX005 (ip), vehicle: Klucel + Tween-80) is 100 % of control and the T/C (dose: 120.0 mg/kg/injection, schedule: Q01DX005 (ip), vehicle: Klucel + Tween-80) is 101 % of control.
As to `COc1ccc(CCNC2=C(/C=C\C(=O)O)C(=O)CC2)cc1OC`, the T/C runs as follows: (dose: 25.0 mg/kg/injection, schedule: Q01DX001 (ip), vehicle: Klucel (hydroxypropylcellulose) (HPC)) 95 % of control; (dose: 50.0 mg/kg/injection, schedule: Q01DX001 (ip), vehicle: Klucel (hydroxypropylcellulose) (HPC)) 100 % of control; (dose: 100.0 mg/kg/injection, schedule: Q01DX001 (ip), vehicle: Klucel (hydroxypropylcellulose) (HPC)) 87 % of control and 92 % of control.
